Measured values as given in patent US10669284B2, “Fused thiazolopyrimidine derivatives as MNKS inhibitors” (LIFEARC, priority 2015, dated 2020).

How the values were obtained:
[1] = biological target: FES (Homo sapiens, UniProt P07332); assay: Kinase selectivity screen FES; settings: read-out: % inhibition of FES
[2] = biological target: RET (Homo sapiens, UniProt P07949); assay: Kinase selectivity screen RET; settings: read-out: % inhibition of RET
[3] = biological target: ALK (Homo sapiens, UniProt Q9UM73); assay: Kinase selectivity screen ALK; settings: read-out: % inhibition of ALK
[4] = biological target: RAF1 (Homo sapiens, UniProt P04049); assay: Kinase selectivity screen RAF1; settings: read-out: % inhibition of RAF1
[5] = biological target: AKT1 (Homo sapiens, UniProt P31749); assay: Kinase selectivity screen AKT1; settings: read-out: % inhibition of AKT1
[6] = biological target: T1, SGK1 (Homo sapiens, UniProt O00141); assay: Kinase selectivity screen SGK1; settings: read-out: % inhibition of SGK1
T1 sequence (O00141 1-431): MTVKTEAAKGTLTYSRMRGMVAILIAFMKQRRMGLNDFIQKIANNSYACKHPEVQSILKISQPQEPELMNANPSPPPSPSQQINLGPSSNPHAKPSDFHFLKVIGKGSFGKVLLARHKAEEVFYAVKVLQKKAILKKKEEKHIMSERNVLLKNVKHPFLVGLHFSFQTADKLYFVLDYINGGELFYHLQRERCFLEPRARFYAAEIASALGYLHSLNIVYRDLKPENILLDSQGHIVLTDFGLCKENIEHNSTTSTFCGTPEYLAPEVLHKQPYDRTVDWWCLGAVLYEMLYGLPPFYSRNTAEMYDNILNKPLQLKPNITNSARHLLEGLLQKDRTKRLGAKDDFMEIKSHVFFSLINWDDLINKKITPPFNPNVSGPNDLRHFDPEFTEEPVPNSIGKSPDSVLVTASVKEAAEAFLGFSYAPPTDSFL

[7] = biological target: MYLK (Homo sapiens, UniProt Q15746); assay: Kinase selectivity screen MYLK; settings: read-out: % inhibition of MYLK
Chain of MYLK (Q15746 1425-1771): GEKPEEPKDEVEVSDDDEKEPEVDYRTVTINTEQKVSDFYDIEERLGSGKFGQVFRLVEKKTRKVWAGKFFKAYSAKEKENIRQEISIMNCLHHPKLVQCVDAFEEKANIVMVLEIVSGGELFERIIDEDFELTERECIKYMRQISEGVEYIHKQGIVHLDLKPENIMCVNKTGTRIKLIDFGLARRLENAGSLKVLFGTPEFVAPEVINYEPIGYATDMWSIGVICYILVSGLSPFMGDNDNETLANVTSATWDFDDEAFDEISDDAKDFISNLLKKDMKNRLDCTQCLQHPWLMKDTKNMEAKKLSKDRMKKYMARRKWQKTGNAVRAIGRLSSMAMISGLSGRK

[8] = biological target: PTK2 (Homo sapiens, UniProt Q05397); assay: Kinase selectivity screen PTK2; settings: read-out: % inhibition of PTK2
[9] = biological target: PTK6 (Homo sapiens, UniProt Q13882); assay: Kinase selectivity screen PTK6; settings: read-out: % inhibition of PTK6
Chain of PTK6 (Q13882 whole entry, species assumed): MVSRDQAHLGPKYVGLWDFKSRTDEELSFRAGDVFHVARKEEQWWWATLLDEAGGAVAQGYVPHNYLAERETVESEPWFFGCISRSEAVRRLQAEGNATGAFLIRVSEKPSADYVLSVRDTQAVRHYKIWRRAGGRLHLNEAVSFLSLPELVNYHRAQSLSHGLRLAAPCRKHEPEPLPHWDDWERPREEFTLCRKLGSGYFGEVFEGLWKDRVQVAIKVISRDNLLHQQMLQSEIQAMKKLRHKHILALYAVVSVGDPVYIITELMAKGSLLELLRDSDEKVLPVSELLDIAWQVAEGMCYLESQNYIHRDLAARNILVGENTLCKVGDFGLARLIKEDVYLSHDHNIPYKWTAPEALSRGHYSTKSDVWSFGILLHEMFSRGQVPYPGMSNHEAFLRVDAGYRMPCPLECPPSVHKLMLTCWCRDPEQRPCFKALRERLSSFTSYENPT

[10] = biological target: PAK1 (Homo sapiens, UniProt Q13153); assay: Kinase selectivity screen PAK1; settings: read-out: % inhibition of PAK1
Chain of PAK1 (Q13153 whole entry): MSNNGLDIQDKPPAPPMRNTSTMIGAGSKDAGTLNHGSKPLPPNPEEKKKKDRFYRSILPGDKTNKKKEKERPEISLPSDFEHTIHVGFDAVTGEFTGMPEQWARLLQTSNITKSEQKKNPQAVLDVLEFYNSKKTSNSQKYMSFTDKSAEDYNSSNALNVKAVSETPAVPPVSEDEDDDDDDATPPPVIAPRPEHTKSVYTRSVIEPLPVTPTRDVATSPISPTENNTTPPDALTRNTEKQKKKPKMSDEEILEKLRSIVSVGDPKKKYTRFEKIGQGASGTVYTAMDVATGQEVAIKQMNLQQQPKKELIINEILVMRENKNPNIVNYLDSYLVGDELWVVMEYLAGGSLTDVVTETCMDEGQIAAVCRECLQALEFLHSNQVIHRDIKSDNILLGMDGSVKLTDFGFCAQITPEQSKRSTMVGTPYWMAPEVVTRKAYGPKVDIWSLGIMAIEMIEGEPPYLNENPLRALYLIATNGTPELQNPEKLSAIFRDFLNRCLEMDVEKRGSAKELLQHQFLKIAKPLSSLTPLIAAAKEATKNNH

[11] = biological target: MAPK8 (Homo sapiens, UniProt P45983); assay: Kinase selectivity screen MAPK8; settings: read-out: % inhibition of MAPK8
[12] = biological target: FGFR3 (Homo sapiens, UniProt P22607); assay: Kinase selectivity screen FGFR3; settings: read-out: % inhibition of FGFR3
[13] = biological target: IGF1R (Homo sapiens, UniProt P08069); assay: Kinase selectivity screen IGF1R; settings: read-out: % inhibition of IGF1R
[14] = biological target: PRKAA2 (Homo sapiens, UniProt P54646); assay: Kinase selectivity screen PRKAA2; settings: read-out: % inhibition of PRKAA2
Chain of PRKAA2 (P54646 whole entry, species assumed): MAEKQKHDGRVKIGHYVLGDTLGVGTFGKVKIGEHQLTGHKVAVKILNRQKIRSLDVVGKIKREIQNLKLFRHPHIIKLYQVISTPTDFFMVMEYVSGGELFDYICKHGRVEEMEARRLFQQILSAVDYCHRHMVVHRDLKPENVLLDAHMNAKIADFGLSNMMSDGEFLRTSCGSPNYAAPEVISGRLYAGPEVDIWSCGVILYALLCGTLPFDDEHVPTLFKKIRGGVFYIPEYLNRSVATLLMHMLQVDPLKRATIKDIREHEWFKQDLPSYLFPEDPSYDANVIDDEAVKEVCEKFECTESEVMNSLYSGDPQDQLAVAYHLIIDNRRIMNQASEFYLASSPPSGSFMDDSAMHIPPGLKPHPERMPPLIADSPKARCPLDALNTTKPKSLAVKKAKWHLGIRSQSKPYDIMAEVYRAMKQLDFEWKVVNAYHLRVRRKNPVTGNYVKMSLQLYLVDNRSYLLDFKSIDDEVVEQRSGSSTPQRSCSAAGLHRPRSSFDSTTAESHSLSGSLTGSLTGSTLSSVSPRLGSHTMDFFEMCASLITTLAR
Chain of PRKAA2 (Q9Y478 whole entry partner, species assumed): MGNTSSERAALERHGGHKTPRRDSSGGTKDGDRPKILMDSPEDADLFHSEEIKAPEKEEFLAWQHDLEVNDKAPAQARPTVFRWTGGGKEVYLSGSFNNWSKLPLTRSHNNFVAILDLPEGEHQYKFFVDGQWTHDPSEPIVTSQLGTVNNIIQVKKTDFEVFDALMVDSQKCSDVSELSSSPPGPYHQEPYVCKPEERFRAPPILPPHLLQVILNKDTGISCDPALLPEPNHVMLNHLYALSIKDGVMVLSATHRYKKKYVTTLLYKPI
Chain of PRKAA2 (P54619 whole entry partner, species assumed): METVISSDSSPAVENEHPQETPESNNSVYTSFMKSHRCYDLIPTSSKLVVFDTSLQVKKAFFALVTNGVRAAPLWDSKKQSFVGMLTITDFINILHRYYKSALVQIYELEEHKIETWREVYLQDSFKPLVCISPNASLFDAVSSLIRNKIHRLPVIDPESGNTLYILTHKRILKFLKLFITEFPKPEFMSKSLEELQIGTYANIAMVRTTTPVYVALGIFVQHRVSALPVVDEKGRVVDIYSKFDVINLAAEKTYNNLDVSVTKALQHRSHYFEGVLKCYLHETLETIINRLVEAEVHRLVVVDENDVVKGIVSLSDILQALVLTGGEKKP

[15] = biological target: PIK3CG (Homo sapiens, UniProt P48736); assay: Kinase selectivity screen PIK3CG; settings: read-out: % inhibition of PIK3CG
Chain of PIK3CG (P48736 whole entry, species assumed): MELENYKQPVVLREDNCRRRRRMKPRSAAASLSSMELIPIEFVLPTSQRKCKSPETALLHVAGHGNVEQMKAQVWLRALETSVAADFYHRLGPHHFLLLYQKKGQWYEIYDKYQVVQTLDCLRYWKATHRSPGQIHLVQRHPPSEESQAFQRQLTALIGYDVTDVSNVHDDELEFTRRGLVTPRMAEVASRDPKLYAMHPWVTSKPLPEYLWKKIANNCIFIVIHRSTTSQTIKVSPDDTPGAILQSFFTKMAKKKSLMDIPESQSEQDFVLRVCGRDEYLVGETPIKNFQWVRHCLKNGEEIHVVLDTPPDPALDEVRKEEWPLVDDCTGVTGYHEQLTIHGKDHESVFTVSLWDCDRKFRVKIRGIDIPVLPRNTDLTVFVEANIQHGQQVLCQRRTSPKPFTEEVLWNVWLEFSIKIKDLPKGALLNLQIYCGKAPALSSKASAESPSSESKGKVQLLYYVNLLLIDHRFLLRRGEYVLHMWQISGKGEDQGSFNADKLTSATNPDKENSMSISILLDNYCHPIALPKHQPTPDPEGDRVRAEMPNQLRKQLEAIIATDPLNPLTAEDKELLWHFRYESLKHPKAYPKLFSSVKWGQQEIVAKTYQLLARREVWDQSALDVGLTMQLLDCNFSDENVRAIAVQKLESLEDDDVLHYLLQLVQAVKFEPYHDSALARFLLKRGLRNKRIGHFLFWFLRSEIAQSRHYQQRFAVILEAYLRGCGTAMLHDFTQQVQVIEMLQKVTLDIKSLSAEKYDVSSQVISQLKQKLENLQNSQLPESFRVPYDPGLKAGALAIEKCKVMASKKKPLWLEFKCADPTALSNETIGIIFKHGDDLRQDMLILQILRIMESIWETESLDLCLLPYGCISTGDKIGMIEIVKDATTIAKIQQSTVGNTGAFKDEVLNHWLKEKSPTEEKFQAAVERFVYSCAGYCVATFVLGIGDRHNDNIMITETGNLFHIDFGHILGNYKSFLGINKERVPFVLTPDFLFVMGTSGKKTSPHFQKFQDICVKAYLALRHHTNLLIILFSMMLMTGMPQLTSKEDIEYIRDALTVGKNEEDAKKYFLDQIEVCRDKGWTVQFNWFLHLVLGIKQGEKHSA

[16] = biological target: T2, MAP3K7 (Homo sapiens, UniProt O43318); assay: Kinase selectivity screen MAP3K7; settings: read-out: % inhibition of MAP3K7
T2 sequence (O43318 1-303 limits assumed): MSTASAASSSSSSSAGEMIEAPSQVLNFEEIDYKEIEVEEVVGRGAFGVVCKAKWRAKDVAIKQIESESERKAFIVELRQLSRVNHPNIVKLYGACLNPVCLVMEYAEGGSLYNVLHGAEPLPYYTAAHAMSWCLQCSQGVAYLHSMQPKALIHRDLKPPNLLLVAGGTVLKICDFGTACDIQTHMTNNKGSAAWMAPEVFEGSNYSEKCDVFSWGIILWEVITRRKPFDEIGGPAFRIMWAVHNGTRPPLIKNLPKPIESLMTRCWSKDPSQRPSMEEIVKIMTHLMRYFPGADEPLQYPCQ

[17] = biological target: MAP2K1 (Homo sapiens, UniProt Q02750); assay: Kinase selectivity screen MAP2K1; settings: read-out: % inhibition of MAP2K1
Chain of MAP2K1 (Q02750 whole entry, species assumed): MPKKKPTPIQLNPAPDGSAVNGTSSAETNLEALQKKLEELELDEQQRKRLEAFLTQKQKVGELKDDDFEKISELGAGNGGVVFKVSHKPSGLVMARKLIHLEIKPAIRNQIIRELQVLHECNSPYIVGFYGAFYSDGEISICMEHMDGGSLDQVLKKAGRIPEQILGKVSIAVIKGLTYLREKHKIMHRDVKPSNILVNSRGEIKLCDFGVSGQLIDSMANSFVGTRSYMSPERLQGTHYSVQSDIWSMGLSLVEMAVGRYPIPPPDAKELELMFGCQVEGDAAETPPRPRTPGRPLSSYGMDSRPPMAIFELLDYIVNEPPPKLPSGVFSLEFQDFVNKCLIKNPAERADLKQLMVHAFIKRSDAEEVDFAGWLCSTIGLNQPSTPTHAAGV

[18] = biological target: RPS6KA1 (Homo sapiens, UniProt Q15418); assay: Kinase selectivity screen RPS6KA1; settings: read-out: % inhibition of RPS6KA1
Chain of RPS6KA1 (Q15418 whole entry, species assumed): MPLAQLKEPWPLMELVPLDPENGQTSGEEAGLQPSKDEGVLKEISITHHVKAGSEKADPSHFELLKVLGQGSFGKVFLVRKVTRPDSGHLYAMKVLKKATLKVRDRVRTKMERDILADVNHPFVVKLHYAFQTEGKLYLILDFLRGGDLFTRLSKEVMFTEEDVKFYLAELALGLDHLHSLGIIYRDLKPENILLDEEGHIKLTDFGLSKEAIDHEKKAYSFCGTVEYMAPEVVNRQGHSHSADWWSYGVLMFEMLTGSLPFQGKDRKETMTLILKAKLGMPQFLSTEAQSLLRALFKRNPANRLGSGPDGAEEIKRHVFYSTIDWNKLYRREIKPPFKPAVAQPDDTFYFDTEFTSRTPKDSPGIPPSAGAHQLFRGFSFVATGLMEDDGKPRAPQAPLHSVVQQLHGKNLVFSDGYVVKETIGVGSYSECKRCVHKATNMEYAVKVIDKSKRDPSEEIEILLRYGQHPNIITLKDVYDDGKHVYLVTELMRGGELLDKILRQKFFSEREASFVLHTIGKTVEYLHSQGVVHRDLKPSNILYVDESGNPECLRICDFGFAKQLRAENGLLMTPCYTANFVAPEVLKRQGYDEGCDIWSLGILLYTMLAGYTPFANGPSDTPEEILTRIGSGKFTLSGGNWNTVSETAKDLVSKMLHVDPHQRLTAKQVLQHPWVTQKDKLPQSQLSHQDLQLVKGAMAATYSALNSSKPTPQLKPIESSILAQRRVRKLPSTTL

[19] = biological target: PIP5K1C (Homo sapiens, UniProt O60331); assay: Kinase selectivity screen PIP5K1C; settings: read-out: % inhibition of PIP5K1C

Q: What does the source list for `CC(C)Oc1cc(F)ccc1Nc1ncnc2sc(C(=O)NCC3CCNCC3)nc12` [Example 10, 7-(4-fluoro-2-isopropoxy-anilino)-N-(4-piperidylmethyl)thiazolo[5,4-d]pyrimidine-2-carboxamide]?
A: inhibition at 1 µM [1]: 13%; inhibition at 1 µM [2]: 0%; inhibition at 1 µM [3]: 10%; inhibition at 1 µM [4]: 0%; inhibition at 1 µM [5]: 0%; inhibition at 1 µM [6]: 14%; inhibition at 1 µM [7]: 10%; inhibition at 1 µM [8]: 16%; inhibition at 1 µM [9]: 0%; inhibition at 1 µM [10]: 0%; inhibition at 1 µM [11]: 5%; inhibition at 1 µM [12]: 0%; inhibition at 1 µM [13]: 12%; inhibition at 1 µM [14]: 1%; inhibition at 1 µM [15]: 6%; inhibition at 1 µM [16]: 20%; inhibition at 1 µM [17]: 0%; inhibition at 1 µM [18]: 30%; inhibition at 1 µM [19]: 6%

Q: What does the source list for `CN(C)CCCNC(=O)c1nc2c(N3CCc4cc(F)ccc43)ncnc2s1` [Example 64, N-[3-(dimethylamino)propyl]-7-(5-fluoroindolin-1-yl)thiazolo[5,4-d]pyrimidine-2-carboxamide]?
A: inhibition at 1 µM [1]: 1%; inhibition at 1 µM [2]: 0%; inhibition at 1 µM [3]: 3%; inhibition at 1 µM [4]: 0%; inhibition at 1 µM [5]: 0%; inhibition at 1 µM [6]: 41%; inhibition at 1 µM [7]: 15%; inhibition at 1 µM [8]: 0%; inhibition at 1 µM [9]: 4%; inhibition at 1 µM [10]: 0%; inhibition at 1 µM [11]: 0%; inhibition at 1 µM [12]: 3%; inhibition at 1 µM [13]: 0%; inhibition at 1 µM [14]: 45%; inhibition at 1 µM [15]: 3%; inhibition at 1 µM [16]: 0%; inhibition at 1 µM [17]: 5%; inhibition at 1 µM [18]: 49%; inhibition at 1 µM [19]: 3%

Q: How did the inhibition at 1 µM [1] turn out when `O=C(NCC1CCNCC1)c1nc2c(N3CCc4cc(F)ccc43)ncnc2s1` [Example 58, 7-(5-fluoroindolin-1-yl)-N-(4-piperidylmethyl)thiazolo[5,4-d]pyrimidine-2-carboxamide] was run?
A: Its inhibition at 1 µM is 16%.

Q: And the inhibition at 1 µM [2]?
A: Its inhibition at 1 µM is 0%.

Q: What about the inhibition at 1 µM [3] of the same compound?
A: The inhibition at 1 µM was 7%.

Q: What about the inhibition at 1 µM [4] of the same compound?
A: Its inhibition at 1 µM is 1%.

Q: And the inhibition at 1 µM [5]?
A: The inhibition at 1 µM was 0%.

Q: What about the inhibition at 1 µM [6] of the same compound?
A: The inhibition at 1 µM was 24%.

Q: And the inhibition at 1 µM [7]?
A: Its inhibition at 1 µM is 15%.

Q: What about the inhibition at 1 µM [8] of the same compound?
A: Its inhibition at 1 µM is 0%.

Q: What about the inhibition at 1 µM [9] of the same compound?
A: The inhibition at 1 µM was 0%.

Q: And the inhibition at 1 µM [10]?
A: The inhibition at 1 µM was 9%.

Q: What about the inhibition at 1 µM [11] of the same compound?
A: The inhibition at 1 µM was 1%.

Q: And the inhibition at 1 µM [12]?
A: Its inhibition at 1 µM is 0%.

Q: What about the inhibition at 1 µM [13] of the same compound?
A: Its inhibition at 1 µM is 11%.

Q: What about the inhibition at 1 µM [14] of the same compound?
A: The inhibition at 1 µM was 1%.

Q: What about the inhibition at 1 µM [15] of the same compound?
A: Its inhibition at 1 µM is 0%.

Q: And the inhibition at 1 µM [16]?
A: Its inhibition at 1 µM is 14%.

Q: What about the inhibition at 1 µM [17] of the same compound?
A: The inhibition at 1 µM was 7%.

Q: And the inhibition at 1 µM [18]?
A: The inhibition at 1 µM was 36%.

Q: And the inhibition at 1 µM [19]?
A: Its inhibition at 1 µM is 6%.
